# Source: patent US20120142722A1, “CONJUGATES OF CYTOTOXIC DRUGS” (priority 2009, published 2012)
# Several values for one entry are separate records, joined by “and”; a condition that tells them apart may be missing. Equal values may be shown once. Entries after “also recorded” stand apart in the source; their conditions may differ. Read-outs that look alike come from different tables or passages of the source.
# Columns and labels:
# [1] = White blood cell count in A375 tumor bearing mice; assay type: in vivo; conditions: ATT-1 3 doses of 30 mg/kg, CCNU 6 doses of 15 mg/kg; tested 1 and 4 days post last dose
# Method: Repeated doses of ATT-1 (3 doses of 30 mg/kg) and CCNU (6 doses of 15 mg/kg) were administered to A375 tumor bearing mice and WBC was tested (at AML, Herzelia, Israel) 1 and 4 days post last dose.
# A375 melanoma tumors = experiment: Tumor growth inhibition in subcutaneous A375 melanoma xenograft; assay type: in vivo, athymic nude mice
# [2] = mouse, in vivo
# A375-melanoma cells = experiment: In vitro cytotoxicity, XTT tetrazolium dye reduction cell viability assay; assay type: cell-based; conditions: Homo sapiens
# [3] = Maximal tolerated dose in healthy nude mice; conditions: female, athymic (nu/nu), mouse, in vivo, iv; i.v. on 5 consecutive days; determined 24 hr after the last dose; no lethality and body weight loss <20%
# Method: Increasing doses of ATT-11E were tested on nude mice for their effect on body weight. Healthy female athymic (nu/nu) mice (6-8 weeks) (Harlan Inc., Jerusalem, Israel) were used for determination of maximum tolerable dose (MTD). MTD was defined as the maximum dose that caused no drug-related lethality and that produced animal body weight loss of <20% of original weight. ATT-11E was dissolved in phosphate buffer (pH 7.4) containing 10% DMSO and 30% cremophor and administered by i.v. injection. ATT-11E was administered on 5 consecutive days. Body weight of mice was monitored daily and MTD was determined 24 hr post last dose.
# [4] = female, beagle, dog, in vivo, iv, 6 mg/kg
# [5] = A-375, 48 h, read-out: IC50 (inhibitory concentration of 50% of cells)
compound,measurement,setting,value
"O=NN(CCCl)C(=O)NC1CCCCC1 [CCNU, Chloroethylcyclo-hexylnitrosourea, reference compound]",Reduction of WBC compared to the control,[1],89%
same,"T/C, tumor volume treated compared to control","A375 melanoma tumors; equal total dose: ATT-1 3 doses of 30 mg/kg, CCNU 6 doses of 15 mg/kg, day 23",0.47
same,Tumor growth inhibition,"A375 melanoma tumors; equi-molar doses: ATT-1 3×30 mg/kg, CCNU 3×15 mg/kg",48%
same,T/C,"A375 melanoma tumors; equi-molar doses: ATT-1 3×30 mg/kg, CCNU 3×15 mg/kg, day 30",0.56
same,Weight loss,[2],19%
same,IC50,"A375-melanoma cells; A-375, 48 h, A375 cells, 48 hours of incubation, XTT, read-out: IC50 (inhibitory concentration of 50% of cells)",200 µM
CCc1c2c(nc3ccc(OC(=O)N4CCC(CCC(C)(C(=O)OC(C)(C)C)C(=O)OC(C)(C)C)CC4)cc13)-c1cc3c(c(=O)n1C2)COC(=O)C3(O)CC (stereo not shown) [ATT-11TBE],Tumor growth delay after the last dose (in words),"A375 melanoma tumors; mouse, in vivo","complete tumor regression; also recorded: substantially inhibited tumor growth, even 22 days after the last dose"
same,Tumor volume growth inhibition (TVI),"A375 melanoma tumors; mouse, in vivo, 5 mg/kg",97%
same,Tumor volume growth inhibition (TVI),"A375 melanoma tumors; mouse, in vivo, 20 mg/kg",100%
same,Plasma level of derived SN-38 at 24 hours after administration (in words),"dog, in vivo",still detectable
same,"AUC of metabolite SN-38, fold larger than SN-38 derived from CPT-11",[4],3.6 fold
same,"Plasma half-life (t1/2) of metabolite SN-38, fold longer than SN-38 derived from CPT-11",[4],3.1 fold
same,IC50,"A375-melanoma cells; A-375, 24 h",0.8 µM
CCOC(=O)C(C)(CCC1CCN(C(=O)Oc2ccc3nc4c(c(CC)c3c2)Cn2c-4cc3c(c2=O)COC(=O)C3(O)CC)CC1)C(=O)OCC (stereo not shown) [ATT-11E],MTD at 5 days,[3],> 40 mg/kg
same,% inhibition,"A375 melanoma tumors; mouse, in vivo, 1 mg/kg",54%
same,T/C,"A375 melanoma tumors; mouse, in vivo, 1 mg/kg",0.46 and 0.62
same,% inhibition,"A375 melanoma tumors; mouse, in vivo, 2.5 mg/kg",65%
same,T/C,"A375 melanoma tumors; mouse, in vivo, 2.5 mg/kg",0.35
same,T/C,"A375 melanoma tumors; mouse, in vivo, 3 mg/kg",0.41
same,% inhibition,"A375 melanoma tumors; mouse, in vivo, 5 mg/kg",72%
same,T/C,"A375 melanoma tumors; mouse, in vivo, 5 mg/kg",0.28
same,T/C,"A375 melanoma tumors; mouse, in vivo, 9 mg/kg",0.39
same,% inhibition,"A375 melanoma tumors; mouse, in vivo, 20 mg/kg",88%
same,Tumor volume growth inhibition (TVI),"A375 melanoma tumors; mouse, in vivo, 20 mg/kg",97%
same,% inhibition,"A375 melanoma tumors; mouse, in vivo, 30 mg/kg",93%
same,T/C,"A375 melanoma tumors; mouse, in vivo, 30 mg/kg",0.07
same,T/C,"A375 melanoma tumors; mouse, in vivo, 40 mg/kg",0.1
same,Tumor volume growth inhibition (TVI),"A375 melanoma tumors; mouse, in vivo, 40 mg/kg",90%
same,IC50,"A375-melanoma cells; A-375, 24 h",0.6 µM
same,IC50,A375-melanoma cells; [5],0.6 µM
"CCc1c2c(nc3ccc(OC(=O)N4CCC(N5CCCCC5)CC4)cc13)-c1cc3c(c(=O)n1C2)COC(=O)[C@]3(O)CC [CPT-11, Irinotecan, reference compound]",Tumor growth delay after the last dose (in words),"A375 melanoma tumors; i.v., ATT-11TBE 20 mg/kg 3 times a week (9 doses), CPT-11 75 mg/kg once a week for three weeks, 22 days after the last dose",never reached the complete tumor regression
same,Plasma level of derived SN-38 at 24 hours after administration (in words),"6 mg/kg intravenous, beagle dogs, 24 hours",below detection level
same,IC50,"A375-melanoma cells; A-375, 24 h, A375 cells, Example 10, incubated for 24 hr, XTT, read-out: IC50",44 µM
same,IC50,"A375-melanoma cells; A-375, 24 h, A375 cells, Example 15 / FIG. 14, 24 hours of incubation, read-out: IC50",9 µM
CCCCCC(CCC1CCC(NC(=O)N(CCCl)N=O)CC1)(C(=O)O)C(=O)O (stereo not shown) [ATT-1],Reduction of WBC compared to the control,[1],27%
same,T/C,"A375 melanoma tumors; mouse, in vivo",0.24
same,"T/C, ratio of tumor volume of treated compared to control","A375 melanoma tumors; mouse, in vivo",0.33
same,"T/C, tumor volume treated compared to control","A375 melanoma tumors; mouse, in vivo",0.52
same,Tumor growth inhibition,"A375 melanoma tumors; mouse, in vivo",48% and 76%
same,Tumor growth inhibition compared with control,"A375 melanoma tumors; mouse, in vivo",77% and 73%
same,Weight loss,[2],14%
same,IC50,A375-melanoma cells; [5],545 µM
CCOC(=O)C(C)(CCC1CCC(NC(=O)N(CCCl)N=O)CC1)C(=O)OCC (stereo not shown) [ATT-5E],IC50,A375-melanoma cells; [5],130 µM
